Assay results as given in US9073821B2, “Hydroxamic acid derivative” (priority 2010, dated 2015).
≈ marks a conversion by molar mass, not a printed value. Where two headings read alike, the source gives them in different places.

What was measured:
[1] = target: E. coli LpxC enzyme (Escherichia coli (strain K12), UniProt P0A725); experiment: Inhibitory activity on E. coli LpxC enzyme (fluorescamine assay); format: biochemical; details: Table 4
Method: Test 2: Evaluation of the Inhibitory Activity on E. coli LpxC Enzyme
An inhibition curve was constructed for each test compound by performing the aforementioned reaction at varying concentrations of the test compound. From this inhibition curve, the concentration of the test compound at which the formation of the reaction product was suppressed by 50% was determined as the IC50 of the test compound, which was an index for the inhibitory activity on E. coli LpxC enzyme.

[2] = test system: Pseudomonas aeruginosa strain TS88 (clinical isolate); experiment: Antimicrobial activity, MIC by broth microdilution; format: cell-based; details: Table 4, 35° C., 18 hours, read-out: Pseudomonas aeruginosa TS88 strain MIC
Excerpt: (§1) Test 3: Evaluation of Antimicrobial Activity For minimum inhibitory concentration (MIC) measurement, the following broth microdilution method was applied as adapted from the standard procedure recommended by the CLSI (Clinical and Laboratory Standards Institute). The bacteria used were Pseudomonas aeruginosa strain TS88 (clinical isolate), E. coli strain ATCC25922, and Klebsiella pneumoniae strain ATCC13883. After culture overnight on a heart infusion agar medium, the cells of a test bacterium were scraped off and suspended to give a turbidity of level 0.5 on the McFarland scale; the suspension was then diluted 10 fold to prepare an inoculum solution. A 0.005 mL aliquot of the inoculum solution was inoculated in a cation-adjusted Mueller-Hinton broth medium containing a test compound and cultured at 35° C. for 18 hours. A minimum drug concentration at which no cell growth was visible to the naked eye was designated as MIC.

[3] = test system: Klebsiella pneumoniae strain ATCC13883; experiment: Antimicrobial activity, MIC by broth microdilution; format: cell-based; details: Table 4, 35° C., 18 hours, read-out: Klebsiella pneumoniae ATCC 13883 strain MIC
Excerpt: as §1

[4] = test system: E. coli strain ATCC25922; experiment: Antimicrobial activity, MIC by broth microdilution; format: cell-based; details: Escherichia coli, Table 4, 35° C., 18 hours, read-out: E. coli ATCC 25922 strain MIC
Excerpt: as §1

[5] = target: Pseudomonas aeruginosa LpxC enzyme (Pseudomonas aeruginosa (strain ATCC 15692 / DSM 22644 / CIP 104116 / JCM 14847 / LMG 12228 / 1C / PRS 101 / PAO1), UniProt P47205); experiment: biochemical; format: biochemical
[6] = Table 4, read-out: Pseudomonas aeruginosa LpxC IC50
[7] = inhibitory activity on Pseudomonas aeruginosa LpxC enzyme, class symbols A/B/C, read-out: Enzyme inhibitory activity

E. coli LpxC enzyme, sequence (P0A725 whole entry): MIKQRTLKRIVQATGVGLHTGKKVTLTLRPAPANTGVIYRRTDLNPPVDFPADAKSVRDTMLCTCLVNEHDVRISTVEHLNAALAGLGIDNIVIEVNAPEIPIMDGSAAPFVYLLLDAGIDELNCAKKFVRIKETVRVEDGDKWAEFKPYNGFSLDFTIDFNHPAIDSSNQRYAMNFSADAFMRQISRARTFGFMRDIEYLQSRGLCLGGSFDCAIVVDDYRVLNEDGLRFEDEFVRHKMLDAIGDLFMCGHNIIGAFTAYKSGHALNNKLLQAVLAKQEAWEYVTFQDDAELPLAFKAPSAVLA

SMILES	IC50 [1] [nM]	MIC [2] [µg/mL]	MIC [3] [µg/mL]	MIC [4] [µg/mL]	IC50 [5] [nM]	IC50 [5, 6] [nM]	IC50 [5, 7] [nM]
CNC(=O)C(C)(C(=O)NO)N(C)C(=O)c1ccc(C#Cc2coc(COC)c2)cc1 (stereo not drawn) [Compound 528, N-hydroxy-2-{[(4-{[5-(methoxymethyl)furan-3-yl]ethynyl}phenyl)carbonyl](methyl)amino}-N′,2-dimethylpropanediamide]	25	0.5 (≈ 1.21 µM)	2 (≈ 4.84 µM)	0.25 (≈ 0.605 µM)	< 10	4.8	
CNC(=O)[C@@](C)(C(=O)NO)N(C)C(=O)c1ccc(/C=C/c2ccc(CN3CCOCC3)cc2)cc1 [Compound 434, (2S)-N-hydroxy-N′,2-dimethyl-2-{methyl[(4-{(E)-2-[4-(morpholin-4-ylmethyl)phenyl]ethenyl}phenyl)carbonyl]amino}propanediamide]	55	1 (≈ 2.08 µM)	1 (≈ 2.08 µM)	0.25 (≈ 0.52 µM)		2.8	< 10
CNC(=O)C(C(=O)NO)N(C)C(=O)c1ccc(C#Cc2ccc(CN3CCCOCC3)cc2)cc1 (stereo not drawn) [Compound 168, N-hydroxy-N′-methyl-2-[methyl(4-{[4-(1,4-oxazepan-4-ylmethyl)phenyl]ethynyl}benzoyl)amino]propanediamide]	119	0.5 (≈ 1.04 µM)	2 (≈ 4.18 µM)	0.5 (≈ 1.04 µM)		4.2	< 10
CCOc1ccc(-c2ccc(C(=O)N(C)C(C(=O)NC)C(=O)NO)cc2)cc1 (stereo not drawn) [Compound 211, 2-{[(4′-ethoxybiphenyl-4-yl)carbonyl](methyl)amino}-N-hydroxy-N′-methylpropanediamide]	109	0.5 (≈ 1.3 µM)	8 (≈ 20.8 µM)	1 (≈ 2.59 µM)		3.1	< 10
CNC(=O)C(C(=O)NO)N(C)C(=O)c1ccc(/C=C/C#Cc2ccc(CNC3CC3)cc2)cc1 (stereo not drawn) [Compound 477, 2-[({4-[(1E)-4-{4-[(cyclopropylamino)methyl]phenyl}but-1-en-3-yn-1-yl]phenyl}carbonyl)(methyl)amino]-N-hydroxy-N′-methylpropanediamide]	33	0.5 (≈ 1.09 µM)	1 (≈ 2.17 µM)	0.25 (≈ 0.543 µM)		4.3	< 10
CNC(=O)[C@@](C)(C(=O)NO)N(C)C(=O)c1ccc(C#Cc2ccc(CNC3COC3)cc2)cc1 [Compound 396, (2S)-N-hydroxy-N′,2-dimethyl-2-(methyl{[4-({4-[(oxetan-3-ylamino)methyl]phenyl}ethynyl)phenyl]carbonyl}amino)propanediamide]	46	2 (≈ 4.31 µM)	2 (≈ 4.31 µM)	0.5 (≈ 1.08 µM)		3.1	< 10
CNC(=O)[C@@](C)(C(=O)NO)N(C)C(=O)c1ccc(CCc2ccc(CN3CCOCC3)cc2)cc1 [Compound 425, (2S)-N-hydroxy-N′,2-dimethyl-2-{methyl[(4-{2-[4-(morpholin-4-ylmethyl)phenyl]ethyl}phenyl)carbonyl]amino}propanediamide]	121	8 (≈ 16.6 µM)	8 (≈ 16.6 µM)	2 (≈ 4.14 µM)		5.1	< 10
CNC(=O)C(C(=O)NO)N(C)C(=O)c1ccc(C#C/C=C/c2ccc(CNC3CC3)cc2)cc1 (stereo not drawn) [Compound 481, 2-[({4-[(3E)-4-{4-[(cyclopropylamino)methyl]phenyl}but-3-en-1-yn-1-yl]phenyl}carbonyl)(methyl)amino]-N-hydroxy-N′-methylpropanediamide]	78	1 (≈ 2.17 µM)	2 (≈ 4.34 µM)	0.25 (≈ 0.543 µM)		9.1	< 10
CNC(=O)[C@@](C)(C(=O)NO)N(C)C(=O)c1ccc(C#Cc2ccc(CN3CCCOCC3)cc2)cc1 [Compound 376, (2S)-N-hydroxy-N′,2-dimethyl-2-[methyl(4-{[4-(1,4-oxazepan-4-ylmethyl)phenyl]ethynyl}benzoyl)amino]propanediamide]	129	0.5 (≈ 1.02 µM)	1 (≈ 2.03 µM)	0.25 (≈ 0.508 µM)		2	< 10
